19 compounds from PubChem BioAssay (NCI) can be followed below.

The structures appear in SMILES notation. Values after ≈ are worked out from the molar mass of the structure shown. Values joined by “and” are separate entries in the source; they are usually repeats but may differ in a detail not shown here. Equal values may be shown once.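 Assay format: 96-well plates, 48-hour exposure. GI50 is the concentration that inhibits growth by half. At the TGI there is no net growth.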 Active and inactive are the calls of the source. Cut-off read from the data, not from the text of the source: active = GI50 below about 0.43 µM; inactive = the rest.

Among the test systems are TK-10 renal; SF-539 CNS; HOP-62 NSCLC; OVCAR-3 ovarian; HL-60(TB) leukemia; EKVX NSCLC; ACHN renal; HCC-2998 colon; SNB-78 CNS; HOP-18 NSCLC.
What all share (assay): NCI tumour cell line growth inhibition, 48 h

Turning to `CC1(C)C=C(N2CCN(C3=CC(C)(C)NC(C)(C)C3)CC2)CC(C)(C)N1`, the TGI with TK-10 renal, in the assay on SF-539 CNS, in the assay on HOP-62 NSCLC, in the assay on OVCAR-3 ovarian, in the assay with HL-60(TB) leukemia and with EKVX NSCLC was above 100 µM in each case. For the same compound, the TGI in the assay on ACHN renal, in the assay with HCC-2998 colon, in the assay with SNB-78 CNS and in the assay on HOP-18 NSCLC was above 100 µM each time.
For the compound `COC(=O)/C=C(C)/C=C/c1c(C)c(C(C)=O)c(C)n1C`, the TGI in the assay with TK-10 renal, with SF-539 CNS, in the assay on HOP-62 NSCLC, in the assay on OVCAR-3 ovarian, in the assay with HL-60(TB) leukemia and in the assay on EKVX NSCLC was above 100 µM in each case. The TGI with ACHN renal, in the assay with HCC-2998 colon, with SNB-78 CNS and with HOP-18 NSCLC was above 100 µM each time.
For `CCc1cc2c(Nc3ccccc3)c3c(nc2s1)CCCC3`, the TGI in the assay on TK-10 renal, in the assay with SF-539 CNS, with HOP-62 NSCLC, with OVCAR-3 ovarian, with HL-60(TB) leukemia and in the assay with EKVX NSCLC was above 100 µM throughout. In addition, the TGI with ACHN renal, in the assay with HCC-2998 colon, in the assay with SNB-78 CNS and in the assay on HOP-18 NSCLC was above 100 µM in each case.
With `O=[N+]([O-])c1cc(C(F)(F)F)cc2n[se]nc12`, the TGI with TK-10 renal is 8.47 µM; with SF-539 CNS it was 7.33 µM; with HOP-62 NSCLC, 29.8 µM; with OVCAR-3 ovarian, 3.33 µM; in the assay on HL-60(TB) leukemia, 4.02 µM; in the assay with EKVX NSCLC, 14.1 µM. Also, the TGI in the assay with ACHN renal was 5.89 µM; in the assay on HCC-2998 colon, 10.2 µM; with SNB-78 CNS, 25.9 µM; in the assay on HOP-18 NSCLC it was 8.96 µM.
In the case of `CC(/C=C1\CCC(CN(C)C)C1=O)c1cccc(Br)c1` (centres undefined), the TGI in the assay with TK-10 renal turned out to be 30.6 µM; in the assay with SF-539 CNS, 33.3 µM; with HOP-62 NSCLC, 42.2 µM; with OVCAR-3 ovarian it was 30.8 µM; in the assay with HL-60(TB) leukemia it was 10.8 µM; in the assay on EKVX NSCLC it was 42 µM. Besides, the TGI was 18 µM in the assay on ACHN renal, 35.9 µM in the assay on HCC-2998 colon, 44.7 µM with SNB-78 CNS and 33.9 µM with HOP-18 NSCLC.
Take `CCCCCCCCCCCCCC(=O)NO`: the TGI in the assay on TK-10 renal came to 59.4 µM; in the assay with SF-539 CNS, 37.9 µM; in the assay on HOP-62 NSCLC, 34.6 µM; in the assay with OVCAR-3 ovarian, 28 µM; in the assay on HL-60(TB) leukemia, 23.7 µM; in the assay with EKVX NSCLC, 54.1 µM. Moreover, the TGI is 39.3 µM in the assay with ACHN renal, 28.7 µM with HCC-2998 colon, above 95 µM in the assay with SNB-78 CNS and 81.6 µM with HOP-18 NSCLC.
As for `CCCc1nn(C)c(CCC(=O)N(Cc2ccccc2)Cc2ccccc2)c1CC`, the TGI in the assay with TK-10 renal, in the assay on SF-539 CNS, with HOP-62 NSCLC, with OVCAR-3 ovarian, in the assay on HL-60(TB) leukemia and in the assay on EKVX NSCLC was above 100 µM each time. The TGI in the assay on ACHN renal, in the assay with HCC-2998 colon, in the assay with SNB-78 CNS and in the assay on HOP-18 NSCLC was above 100 µM in each case.
With `Cc1ccc(-c2nc3ccccc3c(=O)n2NC2OC(CO)C(O)C(O)C2O)cc1` (centres undefined), the TGI with TK-10 renal, in the assay on SF-539 CNS, with HOP-62 NSCLC, in the assay on OVCAR-3 ovarian, in the assay on HL-60(TB) leukemia and with EKVX NSCLC was above 100 µM in each case. Also, the TGI in the assay on ACHN renal, in the assay with HCC-2998 colon, in the assay on SNB-78 CNS and in the assay with HOP-18 NSCLC was above 100 µM throughout.
As to `CN(CO)c1nc(N(C)CO)nc(N(C)CO)n1`, the TGI in the assay with TK-10 renal is 82.9 µM and 77.4 µM; in the assay on SF-539 CNS, 52.4 µM and 36.9 µM; with HOP-62 NSCLC it was > 90.7 µM and 56.7 µM; with OVCAR-3 ovarian, 62.1 µM and 63.5 µM; with HL-60(TB) leukemia it was 75.1 µM and 16.5 µM; with EKVX NSCLC, > 81.5 µM and 77.7 µM. In addition, the TGI was 79.2 µM and 75.6 µM in the assay with ACHN renal; 67.8 µM and 52.4 µM in the assay with HCC-2998 colon; 25.3 µM in the assay on SNB-78 CNS; above 55.6 µM with HOP-18 NSCLC. Moreover, the GI50 in the assay on SF-539 CNS was 23.6 µM and 17.2 µM; in the assay on HOP-62 NSCLC it was 42.6 µM; with HL-60(TB) leukemia it was 26 µM; with EKVX NSCLC it was 41.8 µM; with HCC-2998 colon, 27.9 µM and 25.5 µM.
As to `C[C@H]1[C@H](C)CC[C@]2(C(=O)O)CCC3(COC(=O)/C=C/c4ccc(O)cc4)C(=CCC4[C@@]5(C)CC[C@H](O)C(C)(C)C5CC[C@]43C)[C@H]12` (some centres undefined), the TGI in the assay with TK-10 renal was 22.3 µM; with SF-539 CNS, 16.5 µM; in the assay with HOP-62 NSCLC, 23 µM; in the assay on OVCAR-3 ovarian, 24.5 µM; in the assay on HL-60(TB) leukemia it was 53.1 µM; in the assay on EKVX NSCLC, 24.6 µM. Further, the TGI in the assay with ACHN renal is 13.1 µM; in the assay with HCC-2998 colon, 18.2 µM; with SNB-78 CNS it was above 100 µM; with HOP-18 NSCLC, 33.9 µM.
In the case of `COc1ccccc1/C=C1\CCC(CN2CCOCC2)C1=O` (centres undefined), the TGI turned out to be 12.5 µM in the assay on TK-10 renal; 28.6 µM with SF-539 CNS; 50.2 µM in the assay with HOP-62 NSCLC; 15.2 µM in the assay with OVCAR-3 ovarian; 6.42 µM in the assay with HL-60(TB) leukemia; 30.6 µM in the assay on EKVX NSCLC. Also, the TGI in the assay on ACHN renal is 30 µM; in the assay on HCC-2998 colon, 28.3 µM; with SNB-78 CNS, 48.2 µM; in the assay on HOP-18 NSCLC it was 31.8 µM.
For the compound `CC(Oc1ccc2c(=O)cc(-c3ccccc3)oc2c1)C(=O)O` (centres undefined), the TGI in the assay on TK-10 renal, in the assay with SF-539 CNS, with HOP-62 NSCLC, in the assay on OVCAR-3 ovarian, in the assay on HL-60(TB) leukemia and in the assay with EKVX NSCLC was above 100 µM in each case. Moreover, the TGI in the assay with ACHN renal, with HCC-2998 colon, with SNB-78 CNS and in the assay with HOP-18 NSCLC was above 100 µM in each case.
On to `c1ccc(N2CCN(CCCN3CCc4c([nH]c5ccccc45)C3c3cccnc3)CC2)cc1` (centres undefined), for which the TGI is above 100 µM with TK-10 renal; above 100 µM in the assay on SF-539 CNS; above 100 µM with HOP-62 NSCLC; above 100 µM with OVCAR-3 ovarian; above 58.3 µM in the assay on HL-60(TB) leukemia; above 100 µM with EKVX NSCLC. Also, the TGI with ACHN renal, in the assay on HCC-2998 colon, with SNB-78 CNS and in the assay with HOP-18 NSCLC was above 100 µM in each case.
In the case of `C=C1CCCC2OC(OC)CCC12` (centres undefined), the TGI in the assay on TK-10 renal, in the assay with SF-539 CNS, in the assay on HOP-62 NSCLC, in the assay on OVCAR-3 ovarian, with HL-60(TB) leukemia and in the assay on EKVX NSCLC was above 100 µM throughout. The TGI in the assay with ACHN renal, in the assay on HCC-2998 colon, in the assay with SNB-78 CNS and with HOP-18 NSCLC was above 100 µM in each case.
`O=C(CC1(O)C(=O)Nc2c(Cl)cc(Cl)cc21)c1ccc([N+](=O)[O-])cc1` (centres undefined): the TGI with TK-10 renal was above 100 µM; in the assay with SF-539 CNS it was above 68.7 µM; in the assay with HOP-62 NSCLC, above 100 µM; with OVCAR-3 ovarian it was above 64.1 µM; in the assay with HL-60(TB) leukemia, above 52.5 µM; with EKVX NSCLC, above 61.9 µM. For the same compound, the TGI in the assay on ACHN renal is above 100 µM; with HCC-2998 colon it was above 100 µM; with SNB-78 CNS it was above 78.9 µM; with HOP-18 NSCLC, above 100 µM.
`CCCCCCCCCCCCCP(=O)(OC)OC`: the TGI in the assay on TK-10 renal is 31.6 µM; with SF-539 CNS, 30.9 µM; with HOP-62 NSCLC, 28.2 µM; in the assay on OVCAR-3 ovarian, 34.6 µM; in the assay with HL-60(TB) leukemia, 32.9 µM; with EKVX NSCLC it was 39.5 µM. Further, the TGI with ACHN renal is 32.4 µM; in the assay on HCC-2998 colon, 36 µM; in the assay with SNB-78 CNS, 35.5 µM; in the assay on HOP-18 NSCLC, 32.9 µM.
As for `CCCCCC1CC=CC(NC(=O)OCc2ccccc2)C1/C=C/CCCC1OCCO1` (centres undefined), the TGI in the assay with TK-10 renal is above 100 µM; in the assay with SF-539 CNS it was above 100 µM; in the assay on HOP-62 NSCLC, above 100 µM; in the assay on OVCAR-3 ovarian it was above 100 µM; in the assay on HL-60(TB) leukemia, 33.4 µM; in the assay on EKVX NSCLC it was above 100 µM. In addition, the TGI in the assay with ACHN renal, in the assay on HCC-2998 colon, in the assay with SNB-78 CNS and with HOP-18 NSCLC was above 100 µM each time.
Consider `C=C1C(=O)O[C@H]2C3OC3(C)CC/C=C(/C(=O)OC)[C@@H](OC(C)=O)[C@H](OC(=O)C3(C)OC3C)[C@H]12` (some centres undefined), for which the GI50 in the assay on TK-10 renal was 1.63 µM and 3.42 µM and 0.719 µg/mL; in the assay with SF-539 CNS it was 2.88 µM and 1.98 µM and 3.21 µg/mL; in the assay on HOP-62 NSCLC, 11.9 µM and 5.74 µg/mL; in the assay with OVCAR-3 ovarian, 1.37 µM and 0.984 µg/mL; with HL-60(TB) leukemia, 154 nM and 0.285 µg/mL; in the assay on EKVX NSCLC it was 5.71 µM and 4.57 µM and 3.81 µg/mL. Besides, the GI50 in the assay with ACHN renal is 2.07 µM and 434 nM and 0.944 µg/mL; in the assay with HCC-2998 colon, 3.65 µM and 2.5 µg/mL; with SNB-78 CNS, 1.81 µg/mL (≈ 3.89 µM). Moreover, the TGI was 3.24 µM and 9.88 µM and 2.43 µg/mL in the assay with TK-10 renal; 7.5 µM and 6.28 µM and 7.06 µg/mL in the assay on SF-539 CNS; 24.3 µM and 18.1 µg/mL in the assay on HOP-62 NSCLC; 4.07 µM and 3.13 µg/mL in the assay with OVCAR-3 ovarian; 477 nM and 655 nM and 0.679 µg/mL in the assay on HL-60(TB) leukemia; 26.8 µM and 9.61 µg/mL in the assay on EKVX NSCLC. Further, the TGI in the assay with ACHN renal was 6.36 µM and 3.12 µM and 2.75 µg/mL; with HCC-2998 colon, 12.4 µM and 4.62 µg/mL; with SNB-78 CNS it was 6.79 µg/mL. In addition, the outcome in the assay with HOP-18 NSCLC was inactive.
Turning to `CC(=O)CCn1[nH]c(=O)c(Cl)c(Cl)c1=O`, the TGI in the assay on TK-10 renal, in the assay on SF-539 CNS, with HOP-62 NSCLC, in the assay on OVCAR-3 ovarian, in the assay on HL-60(TB) leukemia and in the assay with EKVX NSCLC was above 100 µM throughout. For the same compound, the TGI with ACHN renal, in the assay on HCC-2998 colon, in the assay with SNB-78 CNS and in the assay with HOP-18 NSCLC was above 100 µM throughout.
